# Reference: US9340551B2, “Inhibitors of bacterial type III secretion system” (MICROBIOTIX, INC., priority 2011, dated 2016)
# Where two headings read alike, the source gives them in different places.
# Experiments:
# [1] = system: T3SS-mediated secretion of ExoS′-βLA fusion protein, P. aeruginosa strain MDM973; test: ExoS′-βLA effector-β-lactamase secretion assay (nitrocefin cleavage); conditions: for IC50: Pseudomonas aeruginosa; for performance in T3SS-mediated secretion relative to MBX-1641, in words: α-propyl and α-isopropyl analogs; for IC50 in the ExoS′βLA assay versus reference inhibitor MBX-1641, in words: FIG. 2; for Secretion, % @50 μM: Table 4; for inhibition of ExoS′-βLA secretion, in words: FIG. 4, concentration-dependence
# [2] = system: T3SS-mediated translocation (ExoU intoxication of CHO cells); test: Inhibition of P. aeruginosa ExoU-dependent CHO cell killing (LDH release); conditions: Pseudomonas aeruginosa
# Description: Rescue of CHO cells from T3SS-mediated cytotoxicity of translocated effector protein ExoU was measured using a lactate dehydrogenase (LDH) release assay as previously reported (Lee, et al., 2005, Infect. Immun., 73:1695-705) except that infection with P. aeruginosa was carried out for 2 hr in the absence of gentamicin. Percent cytotoxicity (% LDH release) was calculated relative to that of the uninfected control, which was set at 0% LDH release, and that of cells infected with P. aeruginosa unprotected by test compound (100% LDH release). LDH released from unprotected, infected cells reached at least 80% of the value obtained from complete lysis with 1% Triton X-100 in the 2 hr timeframe of this experiment.
# [3] = Mammalian cytotoxicity (MTS conversion, serum-free medium); type: cell-based, human; conditions: human, HeLa cells
# HeLa cells = test: as above; type: cell-based, human; conditions: Table 4; average of 1-20 determinations; read-out: Ave. CC50
# [4] = read-out: Ave. Translocation IC50
# [5] = Table 4, average of 1-20 determinations, read-out: Ave. CC50
Compound,IC50 ([1]; read-out: Ave. Secretion IC50) [µM],melting point [°C],"IC50 [2, 4] [µM]",further results
CC(Oc1ccc(Cl)cc1Cl)C(=O)NCc1ccc(F)cc1 (centres unmarked) [MBX-1642],9.8,–,–,–
CC(C)C(Oc1ccc(Cl)cc1Cl)C(=O)NCc1ccc2c(c1)OCO2 (centres unmarked) [MBX-2146],100,74,–,"IC50 ([1]; read-out: Secretion IC50): 100 µM; performance in T3SS-mediated secretion relative to MBX-1641, in words [1]: significantly inferior performance"
CCC(Oc1ncc(Cl)cc1Cl)C(=O)NCc1ccc(F)cc1 (centres unmarked) [MBX-2264],2,–,30,"IC50 in the ExoS′βLA assay versus reference inhibitor MBX-1641, in words [1]: improvements; CC50 at 3 days [3, 5]: 85 µM"
COc1ccc(CNC(=O)C(C)Oc2ccc(Cl)cc2Cl)cc1 (centres unmarked) [MBX-1940],–,77,–,–
CCC(Oc1ccc(Cl)cc1Cl)C(=O)N(C)Cc1ccc2c(c1)OCO2 (centres unmarked) [MBX-2159],19.1,–,> 100,–
CCC(Oc1ccc(Cl)cc1Cl)C(=O)NCc1ccc(OC)cc1 (centres unmarked) [MBX-2083],8.1,86,29.3,–
CCCC(Oc1ccc(Cl)cc1Cl)C(=O)NCc1ccc(OC)c(OC)c1 (centres unmarked) [MBX-2086],–,82,–,"Secretion, % @50 μM ([1]; @50 μM): 18% @50 μM"
CCC(Oc1ncc(Cl)cc1Cl)C(=O)NCc1ccc2c(c1)OCO2 (racemic) [MBX-2263],2,–,17,"IC50 in the ExoS′βLA assay versus reference inhibitor MBX-1641, in words [1]: improvements; inhibition of ExoS′-βLA secretion, in words [1]: potent inhibition of secretion; CC50 at 3 days [3, 5]: > 100 µM"
COc1ccc(CNC(=O)C(C)Oc2ccc(Cl)cc2Cl)cc1OC (centres unmarked) [MBX-1942],–,127,–,–
"CCC(Oc1ncc(Cl)cc1Cl)C(=O)NCc1ccc2sccc2c1 (racemic) [MBX-2359, N-(benzo[b]thiophen-5-ylmethyl)-2-(3,5-dichloropyridin-2-yloxy)butanamide]",1.5,–,–,"inhibition of ExoS′-βLA secretion, in words [1]: potent inhibition of secretion"
CCCC(Oc1ccc(Cl)cc1Cl)C(=O)NCc1ccc(F)cc1 (centres unmarked) [MBX-2088],–,–,–,"Secretion, % @50 μM ([1]; @50 μM): 9% @50 μM"
CCC(Oc1ccc(Cl)cc1Cl)C(=O)NCc1ccc2c(c1)OCO2 (centres unmarked) [MBX-2081],3.9,112,4.2,"IC50 in the ExoS′βLA assay versus reference inhibitor MBX-1641, in words [1]: improvements; IC50 ([1]; read-out: Secretion IC50): 3.9 µM; SI, Selectivity Index (CC50/secretion IC50) ([1]; Table 3, HeLa CC50 / secretion IC50): >50; increase in potency as a T3SS inhibitor relative to MBX-1641 ([1]; α-ethyl analog versus MBX-1641): 3-4 fold; IC50 ([2]; read-out: Translocation IC50): 4.2 µM; CC50 at 3 days ([3]; Table 3, serum-free media, read-out: CC50): > 200 µM; CC50 (HeLa cells): > 200 µM"
CCCC(Oc1ccc(Cl)cc1Cl)C(=O)NCc1ccc2c(c1)OCO2 (centres unmarked) [MBX-2085],–,92,–,"Secretion, % @50 μM (printed in the Secretion IC50 column) ([1]; Table 3, @50 μM): 14% @50 μM; Secretion, % @50 μM ([1]; @50 μM): 14% @50 μM; performance in T3SS-mediated secretion relative to MBX-1641, in words [1]: significantly inferior performance"
"CCC(Oc1ncc(Cl)cc1Cl)C(=O)NCc1ccc2sccc2c1 (centres unmarked) [MBX-2402, N-(benzo[b]thiophen-5-ylmethyl)-2-(3,5-dichloropyridin-2-yloxy)butanamide]",–,–,–,"inhibition of ExoS′-βLA secretion, in words [1]: little inhibitory effect"
COc1ccc(CNC(=O)C(Oc2ccc(Cl)cc2Cl)C(C)C)cc1OC (centres unmarked) [MBX-2147],94.9,109,> 100,–
"CC(Oc1ccc(Cl)cc1Cl)C(=O)NCc1ccc2c(c1)OCO2 (racemic) [MBX-1641, N-(benzo[d][1,3]dioxol-5-ylmethyl)-2-(2,4-dichlorophenoxy)propanamide, reference compound]",7,–,–,–
"CCC(Oc1ncc(Cl)cc1Cl)C(=O)NCc1ccc2sccc2c1 (centres unmarked) [MBX-2401, N-(benzo[b]thiophen-5-ylmethyl)-2-(3,5-dichloropyridin-2-yloxy)butanamide]",–,–,–,"inhibition of ExoS′-βLA secretion, in words [1]: potent inhibition of secretion"
CCC(Oc1ccc(Cl)cc1Cl)C(=O)NCc1ccc(F)cc1 (centres unmarked) [MBX-2084],4.3,108,7.4,"CC50 at 3 days [3, 5]: 45 µM"
COc1ccc(CNC(=O)C(Oc2ccc(Cl)cc2Cl)C(C)C)cc1 (centres unmarked) [MBX-2148],210,77,–,–
CCCC(Oc1ccc(Cl)cc1Cl)C(=O)NCc1ccc(OC)cc1 (centres unmarked) [MBX-2087],–,103,–,"Secretion, % @50 μM ([1]; @50 μM): 16% @50 μM"
CCC(Oc1ccc(Cl)cc1Cl)C(=O)NCc1ccc(OC)c(OC)c1 (centres unmarked) [MBX-2082],16.3,117,> 100,–
CC(C)C(Oc1ccc(Cl)cc1Cl)C(=O)NCc1ccc(F)cc1 (centres unmarked) [MBX-2149],1580,106,–,–
